One assay deals with estrogenicity. To be noted: Jobling and Sumpter 1993; cited from earlier work.
In assay [1] the test system is vitellogenin gene expression in trout hepatocytes. Nature of the assay: Relative estrogenicity compared to estradiol; standard test procedure and stimulation of vitellogenin gene expression in trout hepatocytes. The conditions noted are these: for Relative Estrogenicity: compared to estradiol, assigned an estrogenicity value of unity; for estrogenicity (result in words): standard test procedure, vitellogenin gene expression in trout hepatocytes.

Results on four compounds are retold here after patent publication US7977284B2, “Non-estrogenic alkylphenol derivatives” (Oil Chem Technologies, Inc, priority 2009, dated 2011).

Turning to `CC(C)(C)c1ccc(O)cc1` [4-t-butylphenol], the “times less estrogenic compared to Estradiol” value in the assay with estrogenicity was 1,100 times.
For the compound nonylphenol, the “times less estrogenic compared to Estradiol” value with estrogenicity is given as 9,000 times. Also, in assay [1], the “Relative Estrogenicity” value turned out to be 0.000111 and the “estrogenicity (result in words)” value is “relatively high estrogenicity”.
`C[C@]12CC[C@@H]3c4ccc(O)cc4CC[C@H]3[C@@H]1CC[C@@H]2O` [Estradiol]: the “Relative Estrogenicity” value in assay [1] is recorded as 1.
As for `CC(C)(C)CC(C)(C)c1ccc(O)cc1` [4-t-octylphenol], the “times less estrogenic compared to Estradiol” value in the assay on estrogenicity is 1,200 times. Moreover, in assay [1], the “Relative Estrogenicity” value came out at 0.00037 and the “estrogenicity (result in words)” value was “relatively high estrogenicity”.
